According to US20110039721A1, “METHOD FOR PREDICTION ABOUT CARCINOGENICITY OF SUBSTANCE IN RODENT” (Chemicals Evaluation and Research Institute, priority 2007, published 2011):

How the values were obtained:
[1] = test system: mRNA expressed from the genes (A) to (D) in rat liver; assay: Behavior of genes (mRNA expression level, oligo-DNA microarray) in rat liver after 28-day oral administration; type: in vivo; conditions: for Behavior of gene caused by administration of chemical substance, Gene No. 4846 / Behavior of gene caused by administration of chemical substance, Gene No. 2026 / Behavior of gene caused by administration of chemical substance, Gene No. 4218 / Behavior of gene caused by administration of chemical substance, Gene No. 6182 / Behavior of gene caused by administration of chemical substance, Gene No. 5600: gene group (A); for Behavior of gene caused by administration of chemical substance, Gene No. 4846: Unigene No. Rn.144554; for Behavior of gene caused by administration of chemical substance, Gene No. 2026 / Behavior of gene caused by administration of chemical substance, Gene No. 4218: Unigene No. Rn.167075; for Behavior of gene caused by administration of chemical substance, Gene No. 6182: Unigene No. Rn.5834; for Behavior of gene caused by administration of chemical substance, Gene No. 5600: Unigene No. Rn.9836; for Behavior of gene caused by administration of chemical substance, Gene No. 1494 / Behavior of gene caused by administration of chemical substance, Gene No. 2045 / Behavior of gene caused by administration of chemical substance, Gene No. 2203: gene group (B); for Behavior of gene caused by administration of chemical substance, Gene No. 1494: Unigene No. Rn.1430; for Behavior of gene caused by administration of chemical substance, Gene No. 2045: Unigene No. Rn.19329; for Behavior of gene caused by administration of chemical substance, Gene No. 2203: Unigene No. Rn.21240; for Behavior of gene caused by administration of chemical substance, Gene No. 533 / Behavior of gene caused by administration of chemical substance, Gene No. 725 / Behavior of gene caused by administration of chemical substance, Gene No. 1163 / Behavior of gene caused by administration of chemical substance, Gene No. 4973 / Behavior of gene caused by administration of chemical substance, Gene No. 4095 / Behavior of gene caused by administration of chemical substance, Gene No. 1334 / Behavior of gene caused by administration of chemical substance, Gene No. 6620 / Behavior of gene caused by administration of chemical substance, Gene No. 6303 / Behavior of gene caused by administration of chemical substance, Gene No. 5878 / Behavior of gene caused by administration of chemical substance, Gene No. 1131 / Behavior of gene caused by administration of chemical substance, Gene No. 1562 / Behavior of gene caused by administration of chemical substance, Gene No. 1741 / Behavior of gene caused by administration of chemical substance, Gene No. 893 / Behavior of gene caused by administration of chemical substance, Gene No. 6026 / Behavior of gene caused by administration of chemical substance, Gene No. 154 / Behavior of gene caused by administration of chemical substance, Gene No. 1993 / Behavior of gene caused by administration of chemical substance, Gene No. 813 / Behavior of gene caused by administration of chemical substance, Gene No. 2494 / Behavior of gene caused by administration of chemical substance, Gene No. 2546 / Behavior of gene caused by administration of chemical substance, Gene No. 3776 / Behavior of gene caused by administration of chemical substance, Gene No. 3929 / Behavior of gene caused by administration of chemical substance, Gene No. 1119 / Behavior of gene caused by administration of chemical substance, Gene No. 6742 / Behavior of gene caused by administration of chemical substance, Gene No. 5634: gene group (C); for Behavior of gene caused by administration of chemical substance, Gene No. 533: Unigene No. Rn.106184; for Behavior of gene caused by administration of chemical substance, Gene No. 725: Unigene No. Rn.108075; for Behavior of gene caused by administration of chemical substance, Gene No. 1163: Unigene No. Rn.11766; for Behavior of gene caused by administration of chemical substance, Gene No. 4973: Unigene No. Rn.118529; for Behavior of gene caused by administration of chemical substance, Gene No. 4095: Unigene No. Rn.119024; for Behavior of gene caused by administration of chemical substance, Gene No. 1334 / Behavior of gene caused by administration of chemical substance, Gene No. 6620: Unigene No. Rn.120914; for Behavior of gene caused by administration of chemical substance, Gene No. 6303: Unigene No. Rn.123063; for Behavior of gene caused by administration of chemical substance, Gene No. 5878: Unigene No. Rn.143213; for Behavior of gene caused by administration of chemical substance, Gene No. 1131: Unigene No. Rn.144946; for Behavior of gene caused by administration of chemical substance, Gene No. 1562: Unigene No. Rn.14744; for Behavior of gene caused by administration of chemical substance, Gene No. 1741: Unigene No. Rn.1647; for Behavior of gene caused by administration of chemical substance, Gene No. 893: Unigene No. Rn.164817; for Behavior of gene caused by administration of chemical substance, Gene No. 6026: Unigene No. Rn.167685; for Behavior of gene caused by administration of chemical substance, Gene No. 154: Unigene No. Rn.185941; for Behavior of gene caused by administration of chemical substance, Gene No. 1993: Unigene No. Rn.18728; for Behavior of gene caused by administration of chemical substance, Gene No. 813: Unigene No. Rn.201760; for Behavior of gene caused by administration of chemical substance, Gene No. 2494: Unigene No. Rn.23969; for Behavior of gene caused by administration of chemical substance, Gene No. 2546: Unigene No. Rn.24561; for Behavior of gene caused by administration of chemical substance, Gene No. 3776: Unigene No. Rn.43232; for Behavior of gene caused by administration of chemical substance, Gene No. 3929: Unigene No. Rn.4620; for Behavior of gene caused by administration of chemical substance, Gene No. 1119: Unigene No. Rn.9757; for Behavior of gene caused by administration of chemical substance, Gene No. 6742: Unigene No. Rn.9779; for Behavior of gene caused by administration of chemical substance, Gene No. 5634: Unigene No. Rn.9862; for Behavior of gene caused by administration of chemical substance, Gene No. 5726: gene group (D), Unigene No. Rn.9939
Outline: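 Oral gavage, once daily × 28 days; male F344 SPF rats, 5 wk, n=4/group; vehicle controls given equal solvent volume. Liver excised day 28, total RNA purified. Significance: ≥1.5× or ≤1/1.5 of vehicle, direction concordant with other carcinogens.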

liver = conditions: classification of the substance (Cr+/Cr−); cited from earlier work
rodent = conditions: classification of the substance (C+/C−); cited from earlier work
[2] = classification of the substance (M+/M−); cited from earlier work

## CC/C(=C(/CC)c1ccc(O)cc1)c1ccc(O)cc1 [TS068, Diethylstilbestrol]
[1]; mRNA vs vehicle control group
  Behavior of gene caused by administration of chemical substance, Gene No. 4846: +
  Behavior of gene caused by administration of chemical substance, Gene No. 2026: −
  Behavior of gene caused by administration of chemical substance, Gene No. 4218: +
  Behavior of gene caused by administration of chemical substance, Gene No. 6182: +
  Behavior of gene caused by administration of chemical substance, Gene No. 5600: +
  Behavior of gene caused by administration of chemical substance, Gene No. 1494: −
  Behavior of gene caused by administration of chemical substance, Gene No. 2045: −
  Behavior of gene caused by administration of chemical substance, Gene No. 2203: −
  Behavior of gene caused by administration of chemical substance, Gene No. 533: +
  Behavior of gene caused by administration of chemical substance, Gene No. 725: +
  Behavior of gene caused by administration of chemical substance, Gene No. 1163: +
  Behavior of gene caused by administration of chemical substance, Gene No. 4973: +
  Behavior of gene caused by administration of chemical substance, Gene No. 4095: +
  Behavior of gene caused by administration of chemical substance, Gene No. 1334: +
  Behavior of gene caused by administration of chemical substance, Gene No. 6620: +
  Behavior of gene caused by administration of chemical substance, Gene No. 6303: +
  Behavior of gene caused by administration of chemical substance, Gene No. 5878: +
  Behavior of gene caused by administration of chemical substance, Gene No. 1131: +
  Behavior of gene caused by administration of chemical substance, Gene No. 1562: +
  Behavior of gene caused by administration of chemical substance, Gene No. 1741: +
  Behavior of gene caused by administration of chemical substance, Gene No. 893: +
  Behavior of gene caused by administration of chemical substance, Gene No. 6026: +
  Behavior of gene caused by administration of chemical substance, Gene No. 154: +
  Behavior of gene caused by administration of chemical substance, Gene No. 1993: +
  Behavior of gene caused by administration of chemical substance, Gene No. 813: +
  Behavior of gene caused by administration of chemical substance, Gene No. 2494: +
  Behavior of gene caused by administration of chemical substance, Gene No. 2546: +
  Behavior of gene caused by administration of chemical substance, Gene No. 3776: +
  Behavior of gene caused by administration of chemical substance, Gene No. 3929: +
  Behavior of gene caused by administration of chemical substance, Gene No. 1119: +
  Behavior of gene caused by administration of chemical substance, Gene No. 6742: +
  Behavior of gene caused by administration of chemical substance, Gene No. 5634: +
  Behavior of gene caused by administration of chemical substance, Gene No. 5726: −
liver
  Liver carcinogenicity: Cr−
rodent
  Carcinogenicity: C+
[2]
  Mutagenicity by Ames test: M−

## CC(=O)Oc1ccccc1C(=O)O [TS071, Aspirin]
[1]
  Behavior of gene caused by administration of chemical substance, Gene No. 4846: −
  Behavior of gene caused by administration of chemical substance, Gene No. 2026: −
  Behavior of gene caused by administration of chemical substance, Gene No. 4218: −
  Behavior of gene caused by administration of chemical substance, Gene No. 6182: −
  Behavior of gene caused by administration of chemical substance, Gene No. 5600: −
  Behavior of gene caused by administration of chemical substance, Gene No. 1494: −
  Behavior of gene caused by administration of chemical substance, Gene No. 2045: −
  Behavior of gene caused by administration of chemical substance, Gene No. 2203: −
  Behavior of gene caused by administration of chemical substance, Gene No. 533: −
  Behavior of gene caused by administration of chemical substance, Gene No. 725: −
  Behavior of gene caused by administration of chemical substance, Gene No. 1163: −
  Behavior of gene caused by administration of chemical substance, Gene No. 4973: −
  Behavior of gene caused by administration of chemical substance, Gene No. 4095: −
  Behavior of gene caused by administration of chemical substance, Gene No. 1334: −
  Behavior of gene caused by administration of chemical substance, Gene No. 6620: −
  Behavior of gene caused by administration of chemical substance, Gene No. 6303: −
  Behavior of gene caused by administration of chemical substance, Gene No. 5878: −
  Behavior of gene caused by administration of chemical substance, Gene No. 1131: +
  Behavior of gene caused by administration of chemical substance, Gene No. 1562: −
  Behavior of gene caused by administration of chemical substance, Gene No. 1741: −
  Behavior of gene caused by administration of chemical substance, Gene No. 893: −
  Behavior of gene caused by administration of chemical substance, Gene No. 6026: −
  Behavior of gene caused by administration of chemical substance, Gene No. 154: −
  Behavior of gene caused by administration of chemical substance, Gene No. 1993: −
  Behavior of gene caused by administration of chemical substance, Gene No. 813: −
  Behavior of gene caused by administration of chemical substance, Gene No. 2494: −
  Behavior of gene caused by administration of chemical substance, Gene No. 2546: −
  Behavior of gene caused by administration of chemical substance, Gene No. 3776: −
  Behavior of gene caused by administration of chemical substance, Gene No. 3929: −
  Behavior of gene caused by administration of chemical substance, Gene No. 1119: −
  Behavior of gene caused by administration of chemical substance, Gene No. 6742: −
  Behavior of gene caused by administration of chemical substance, Gene No. 5634: −
  Behavior of gene caused by administration of chemical substance, Gene No. 5726: −
liver
  Liver carcinogenicity: Cr−
rodent
  Carcinogenicity: C−
[2]
  Mutagenicity by Ames test: M−
